Experimental data published in ChEMBL document CHEMBL1201862, “PubChem BioAssay data set” (2004).
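In this assay, cells in 96-well plates receive the compound at five concentrations for 48 hours. Endpoints are linearly interpolated between the surrounding concentrations. Here, GI50 denotes the concentration required for 50% inhibition of growth.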 The source made the active and inactive calls. No stated cut-off is given here; in the data, active = GI50 up to about 1.1 µM and inactive = higher.

Columns and labels:
Experiment in all cases: DTP human tumour cell line panel, 48 h
[1] = system: T47D
[2] = system: SN12C
[3] = system: 786-0
[4] = system: HT-29
[5] = system: HOP-92
[6] = system: NCI-H226
[7] = system: HCT-15
[8] = system: HOP-62
[9] = system: MCF7
[10] = system: MOLT-4
[11] = system: RPMI-8226
[12] = system: COLO 205
[13] = system: CCRF-CEM
[14] = system: SK-MEL-2
[15] = system: BT-549
[16] = system: SF-295
[17] = system: MDA-MB-435
[18] = system: Hs-578T
[19] = system: A498
[20] = system: SK-OV-3

SMILES	GI50 [1]	GI50 [2]	GI50 [3]	GI50 [4]	GI50 [5]	GI50 [6]	GI50 [7]	GI50 [8]	GI50 [9]	GI50 [10]	GI50 [11]	GI50 [12]	GI50 [13]	GI50 [14]	GI50 [15]	GI50 [16]	GI50 [17]	GI50 [18]	GI50 [19]	GI50 [20]
CO/C(=N\N=C\c1ccccc1F)c1ccncc1	> 10 µM (inactive)	> 10 µM (inactive)	> 10 µM (inactive)	> 10 µM (inactive)	> 10 µM (inactive)	> 10 µM (inactive)	> 10 µM	> 10 µM (inactive)	> 10 µM (inactive)	> 10 µM (inactive)	> 10 µM (inactive)	> 10 µM (inactive)	> 10 µM (inactive)	> 10 µM (inactive)	> 10 µM (inactive)	> 10 µM (inactive)	> 10 µM (inactive)	–	–	–
COC1CC(OC(=O)c2ccccc2)C(OC(=O)c2ccccc2)C(C)O1 (stereo not drawn)	> 100 µM (inactive)	> 100 µM (inactive)	> 100 µM (inactive)	–	19.3 µM (inactive)	85.1 µM (inactive)	> 100 µM	> 100 µM (inactive)	> 100 µM (inactive)	> 100 µM (inactive)	> 100 µM (inactive)	> 100 µM (inactive)	> 100 µM (inactive)	> 100 µM (inactive)	–	> 100 µM (inactive)	> 100 µM (inactive)	59.8 µM (inactive)	> 100 µM (inactive)	> 100 µM (inactive)
O=C1c2cccc3cccc(c23)C(=O)N1CCCN1CCN(CCCN2C(=O)c3cccc4cccc(c34)C2=O)CC1	–	> 100 µM (inactive)	> 100 µM (inactive)	> 100 µM (inactive)	> 100 µM (inactive)	> 100 µM (inactive)	> 100 µM	> 100 µM (inactive)	–	> 100 µM (inactive)	> 100 µM (inactive)	> 100 µM (inactive)	32.8 µM (inactive)	> 100 µM (inactive)	–	> 100 µM (inactive)	–	–	> 100 µM (inactive)	> 100 µM (inactive)
COc1ccc(C)cc1-c1ccc(-c2cc(C)ccc2OC)o1	–	> 100 µM (inactive)	> 100 µM (inactive)	> 100 µM (inactive)	54.6 µM (inactive)	> 100 µM (inactive)	> 100 µM	> 100 µM (inactive)	–	> 100 µM (inactive)	> 100 µM (inactive)	> 100 µM (inactive)	68.4 µM (inactive)	56.9 µM (inactive)	–	> 100 µM (inactive)	–	–	> 100 µM (inactive)	> 100 µM (inactive)
CN(C)c1ccc(C2=C([O-])c3cc(-[n+]4ccccc4)ccc3C2=O)cc1	–	> 100 µM (inactive)	> 100 µM (inactive)	> 100 µM (inactive)	> 100 µM (inactive)	> 100 µM (inactive)	> 100 µM	> 100 µM (inactive)	> 100 µM (inactive)	> 100 µM (inactive)	> 100 µM (inactive)	> 100 µM (inactive)	> 100 µM (inactive)	–	> 100 µM (inactive)	> 100 µM (inactive)	> 100 µM (inactive)	> 100 µM (inactive)	> 100 µM (inactive)	–
C=C(Cl)C(Br)(CBr)CCC(Br)C(C)(C)Br (stereo not drawn)	–	7.73 µM (inactive)	1.57 µM (inactive)	3.33 µM (inactive)	5.06 µM (inactive)	> 10 µM (inactive)	–	6.67 µM (inactive)	2.11 µM (inactive)	1.08 µM (active)	1.83 µM (inactive)	7.33 µM (inactive)	3.89 µM (inactive)	–	> 10 µM (inactive)	> 10 µM (inactive)	> 10 µM (inactive)	–	> 10 µM (inactive)	> 10 µM (inactive)
COC(=O)[C@@]12C3=NO[C@]1(C(=O)OC)C(O[Si](C)(C)C(C)(C)C)[C@@H](OC(C)=O)[C@@H](OC(C)=O)[C@@H]2[C@@H](OCc1ccccc1)CC3 (stereo partly drawn)	–	> 100 µM (inactive)	14.2 µM (inactive)	> 72.3 µM (inactive)	2.22 µM (inactive)	14.9 µM (inactive)	> 30.9 µM	> 100 µM (inactive)	–	5.14 µM (inactive)	4.42 µM (inactive)	> 100 µM (inactive)	5.45 µM (inactive)	8.26 µM (inactive)	–	5.68 µM (inactive)	–	–	> 85.3 µM (inactive)	> 100 µM (inactive)
COc1cc(/C=C/c2ccc(Br)cc2)cc(OC)c1OC	–	18.7 µM (inactive)	19.9 µM (inactive)	6.44 µM (inactive)	12.1 µM (inactive)	15.9 µM (inactive)	7 µM	13.7 µM (inactive)	–	3.21 µM (inactive)	3.99 µM (inactive)	8.83 µM (inactive)	11.8 µM (inactive)	14.6 µM (inactive)	–	6.73 µM (inactive)	–	–	6.71 µM (inactive)	20.7 µM (inactive)
CC1SC2=NC3=C(c4ccccc4C3=O)C(c3ccc(Cl)cc3)N2C1=O (stereo not drawn)	–	95.5 µM (inactive)	> 100 µM (inactive)	> 100 µM (inactive)	22.3 µM (inactive)	> 100 µM (inactive)	> 100 µM	> 100 µM (inactive)	–	> 100 µM (inactive)	64 µM (inactive)	> 100 µM (inactive)	> 100 µM (inactive)	> 100 µM (inactive)	–	> 100 µM (inactive)	–	–	> 100 µM (inactive)	> 100 µM (inactive)
